Legend:
[1] = Cryogenic grinding of perfluorinated elastomers (Spex mill), MeOH extraction and LC/MS determination of perfluorinated carboxylic acids; assay type: physicochemical; conditions: 10 wt.-% BHT versus no radical scavenger
Text: (§1) The general procedures described in "3M Standard Method for PFAS in Articles of Commerce, Edition 1, 02 June 2020", including the test and analytical equipment, was followed. The disclosure of this document is incorporated herein by reference in its entirety. In particular, reference is made with regard to the experimental and analytical setup and methods used in the present disclosure to the chapter "Part 3: Instrumental Analysis", 3.1.1 "Analytical Equipment and Materials" as well as 3.1.2 "HPLC Conditions (exemplary)".
(§2) The submitted samples were dissolved in methanol prior to analysis. Standard solutions were prepared from an aqueous solution of Adona that was determined to have a concentration of 28.36% by NMR.
In this study the inhibition effect of radical scavengers on the generation of perfluorinated carboxylic acids during cryogenic grinding of PFE and PFE compounds was investigated. As example 1, PTFE 191 plus 10 wt.-% BHT as radical scavenger was used. The amount of BHT was added as a powder to the gum in the milling container. Comparative Example 1 was PTFE 191 without BHT or any other radical scavengers. […]
The perfluorinated carboxylic acids were determined by extraction of the grinded material with MeOH and subsequent LC/MS measurements. […]

[2] = Cryogenic grinding of crystalline perfluorinated polymers on the Spex mill, MeOH extraction and LC/MS determination of perfluorinated carboxylic acids; assay type: physicochemical; conditions: 10 wt.-% BHT versus no radical scavenger
Text: as §1, §2
In this study the inhibition effect of radical scavengers on the generation of perfluorinated carboxylic acids during cryogenic grinding of crystalline fluoropolymers was investigated. The polymers were grinded on a Spex or Retsch mill under the addition of BHT (2,6-Di-tert-butyl-4-methylphenol; CAS 128-37-0). The BHT was added as a powder to the polymer in the milling tube. Table 3. Milling conditions.
Perfluorinated carboxylic acids were extracted with MeOH and determined by LC/MS measurements as published in the 3M Standard test method for the determination of PFOA in articles of commerce. […]

lowers the PFOA formation [1]: within three orders of magnitude
formation of C3-C7 Perfluorocarboxylic acids is reduced by a factor of [2]: 18
SMILES: Cc1cc(C(C)(C)C)c(O)c(C(C)(C)C)c1 [BHT, 2,6-Di-tert-butyl-4-methylphenol]
